From ChEMBL document CHEMBL5303573, “Mapping human microbiome drug metabolism by gut bacteria and their genes” (Nature, 2019)

Conditions: enterocloster bolteae, 12 h, 2 µM
Description: The drug is tested on Clostridium bolteae strain: ATCCBAA-613 for biotransformation. The drug concentrations were measured before and after a 12-h incubation by liquid-chromatography-coupled mass spectrometry (LC–MS)

Structure (SMILES) | Bacterial Biotransformation
O=C1CC2(CCCC2)CC(=O)N1CCCCN1CCN(c2ncccn2)CC1 [BUSPIRONE] | Compound NOT metabolized
OCCOCCN1CCN(C2=Nc3ccccc3Sc3ccccc32)CC1 [QUETIAPINE] | Compound NOT metabolized
O=c1n(CCCN2CCN(c3cccc(Cl)c3)CC2)nc2ccccn12 [TRAZODONE] | Compound NOT metabolized
C[C@@H](c1ncncc1F)[C@](O)(Cn1cncn1)c1ccc(F)cc1F [VORICONAZOLE] | Compound NOT metabolized

Test: The drug is tested on Providencia stuartii strain: ATCC25827 for biotransformation. The drug concentrations were measured before and after a 12-h incubation by liquid-chromatography-coupled mass spectrometry (LC–MS)
Conditions: 2 µM

Structure (SMILES) | Bacterial Biotransformation
O=C1CC2(CCCC2)CC(=O)N1CCCCN1CCN(c2ncccn2)CC1 [BUSPIRONE] | Compound NOT metabolized
O=c1n(CCCN2CCN(c3cccc(Cl)c3)CC2)nc2ccccn12 [TRAZODONE] | Compound NOT metabolized
C[C@@H](c1ncncc1F)[C@](O)(Cn1cncn1)c1ccc(F)cc1F [VORICONAZOLE] | Compound NOT metabolized

Test: The drug is tested on Collinsella aerofaciens strain: ATCC25986 for biotransformation. The drug concentrations were measured before and after a 12-h incubation by liquid-chromatography-coupled mass spectrometry (LC–MS)
Conditions: 2 µM

Structure (SMILES) | Bacterial Biotransformation
O=C1CC2(CCCC2)CC(=O)N1CCCCN1CCN(c2ncccn2)CC1 [BUSPIRONE] | Compound NOT metabolized
OCCOCCN1CCN(C2=Nc3ccccc3Sc3ccccc32)CC1 [QUETIAPINE] | Compound NOT metabolized
O=c1n(CCCN2CCN(c3cccc(Cl)c3)CC2)nc2ccccn12 [TRAZODONE] | Compound NOT metabolized
C[C@@H](c1ncncc1F)[C@](O)(Cn1cncn1)c1ccc(F)cc1F [VORICONAZOLE] | Compound NOT metabolized

Test: The drug is tested on Bacteroides sp. WH2 strain: WH2 for biotransformation. The drug concentrations were measured before and after a 12-h incubation by liquid-chromatography-coupled mass spectrometry (LC–MS)
Conditions: bacteroides sp. wh2, 12 h, 2 µM

Structure (SMILES) | Bacterial Biotransformation
O=C1CC2(CCCC2)CC(=O)N1CCCCN1CCN(c2ncccn2)CC1 [BUSPIRONE] | Compound NOT metabolized
OCCOCCN1CCN(C2=Nc3ccccc3Sc3ccccc32)CC1 [QUETIAPINE] | Compound NOT metabolized
O=c1n(CCCN2CCN(c3cccc(Cl)c3)CC2)nc2ccccn12 [TRAZODONE] | Compound NOT metabolized
C[C@@H](c1ncncc1F)[C@](O)(Cn1cncn1)c1ccc(F)cc1F [VORICONAZOLE] | Compound NOT metabolized

Test: The drug is tested on Collinsella intestinalis strain: DSM13280 for biotransformation. The drug concentrations were measured before and after a 12-h incubation by liquid-chromatography-coupled mass spectrometry (LC–MS)
Conditions: 2 µM

Structure (SMILES) | Bacterial Biotransformation
O=C1CC2(CCCC2)CC(=O)N1CCCCN1CCN(c2ncccn2)CC1 [BUSPIRONE] | Compound NOT metabolized
OCCOCCN1CCN(C2=Nc3ccccc3Sc3ccccc32)CC1 [QUETIAPINE] | Compound NOT metabolized
O=c1n(CCCN2CCN(c3cccc(Cl)c3)CC2)nc2ccccn12 [TRAZODONE] | Compound NOT metabolized
C[C@@H](c1ncncc1F)[C@](O)(Cn1cncn1)c1ccc(F)cc1F [VORICONAZOLE] | Compound NOT metabolized

Test: The drug is tested on Edwardsiella tarda strain: ATCC23685 for biotransformation. The drug concentrations were measured before and after a 12-h incubation by liquid-chromatography-coupled mass spectrometry (LC–MS)
Conditions: 2 µM

Structure (SMILES) | Bacterial Biotransformation
O=C1CC2(CCCC2)CC(=O)N1CCCCN1CCN(c2ncccn2)CC1 [BUSPIRONE] | Compound NOT metabolized
OCCOCCN1CCN(C2=Nc3ccccc3Sc3ccccc32)CC1 [QUETIAPINE] | Compound NOT metabolized
O=c1n(CCCN2CCN(c3cccc(Cl)c3)CC2)nc2ccccn12 [TRAZODONE] | Compound NOT metabolized
C[C@@H](c1ncncc1F)[C@](O)(Cn1cncn1)c1ccc(F)cc1F [VORICONAZOLE] | Compound NOT metabolized

Test: The drug is tested on Bacteroides fragilis strain: HMW610 for biotransformation. The drug concentrations were measured before and after a 12-h incubation by liquid-chromatography-coupled mass spectrometry (LC–MS)
Conditions: 2 µM

Structure (SMILES) | Bacterial Biotransformation
O=C1CC2(CCCC2)CC(=O)N1CCCCN1CCN(c2ncccn2)CC1 [BUSPIRONE] | Compound NOT metabolized
OCCOCCN1CCN(C2=Nc3ccccc3Sc3ccccc32)CC1 [QUETIAPINE] | Compound NOT metabolized
O=c1n(CCCN2CCN(c3cccc(Cl)c3)CC2)nc2ccccn12 [TRAZODONE] | Compound NOT metabolized
C[C@@H](c1ncncc1F)[C@](O)(Cn1cncn1)c1ccc(F)cc1F [VORICONAZOLE] | Compound metabolized

Test: The drug is tested on Bacteroides dorei strain: DSM17855 for biotransformation. The drug concentrations were measured before and after a 12-h incubation by liquid-chromatography-coupled mass spectrometry (LC–MS)
Conditions: phocaeicola dorei, 2 µM

Structure (SMILES) | Bacterial Biotransformation
O=C1CC2(CCCC2)CC(=O)N1CCCCN1CCN(c2ncccn2)CC1 [BUSPIRONE] | Compound NOT metabolized
OCCOCCN1CCN(C2=Nc3ccccc3Sc3ccccc32)CC1 [QUETIAPINE] | Compound NOT metabolized
O=c1n(CCCN2CCN(c3cccc(Cl)c3)CC2)nc2ccccn12 [TRAZODONE] | Compound NOT metabolized
C[C@@H](c1ncncc1F)[C@](O)(Cn1cncn1)c1ccc(F)cc1F [VORICONAZOLE] | Compound metabolized

Test: The drug is tested on Parabacteroides merdae strain: ATCC43184 for biotransformation. The drug concentrations were measured before and after a 12-h incubation by liquid-chromatography-coupled mass spectrometry (LC–MS)
Conditions: 2 µM

Structure (SMILES) | Bacterial Biotransformation
O=C1CC2(CCCC2)CC(=O)N1CCCCN1CCN(c2ncccn2)CC1 [BUSPIRONE] | Compound NOT metabolized
OCCOCCN1CCN(C2=Nc3ccccc3Sc3ccccc32)CC1 [QUETIAPINE] | Compound NOT metabolized
O=c1n(CCCN2CCN(c3cccc(Cl)c3)CC2)nc2ccccn12 [TRAZODONE] | Compound NOT metabolized
C[C@@H](c1ncncc1F)[C@](O)(Cn1cncn1)c1ccc(F)cc1F [VORICONAZOLE] | Compound NOT metabolized

Test: The drug is tested on Bacteroides coprophilus strain: DSM18228 for biotransformation. The drug concentrations were measured before and after a 12-h incubation by liquid-chromatography-coupled mass spectrometry (LC–MS)
Conditions: 2 µM

Structure (SMILES) | Bacterial Biotransformation
O=C1CC2(CCCC2)CC(=O)N1CCCCN1CCN(c2ncccn2)CC1 [BUSPIRONE] | Compound NOT metabolized
OCCOCCN1CCN(C2=Nc3ccccc3Sc3ccccc32)CC1 [QUETIAPINE] | Compound NOT metabolized
O=c1n(CCCN2CCN(c3cccc(Cl)c3)CC2)nc2ccccn12 [TRAZODONE] | Compound NOT metabolized

Conditions: bacteroides thetaiotaomicron, 12 h, 2 µM
Description: The drug is tested on Bacteroides thetaiotaomicron strain: 7330 for biotransformation. The drug concentrations were measured before and after a 12-h incubation by liquid-chromatography-coupled mass spectrometry (LC–MS)

Structure (SMILES) | Bacterial Biotransformation
O=C1CC2(CCCC2)CC(=O)N1CCCCN1CCN(c2ncccn2)CC1 [BUSPIRONE] | Compound NOT metabolized
OCCOCCN1CCN(C2=Nc3ccccc3Sc3ccccc32)CC1 [QUETIAPINE] | Compound NOT metabolized
O=c1n(CCCN2CCN(c3cccc(Cl)c3)CC2)nc2ccccn12 [TRAZODONE] | Compound NOT metabolized
C[C@@H](c1ncncc1F)[C@](O)(Cn1cncn1)c1ccc(F)cc1F [VORICONAZOLE] | Compound metabolized

Test: The drug is tested on Bacteroides pectinophilus strain: ATCC43243 for biotransformation. The drug concentrations were measured before and after a 12-h incubation by liquid-chromatography-coupled mass spectrometry (LC–MS)
Conditions: 2 µM

Structure (SMILES) | Bacterial Biotransformation
O=C1CC2(CCCC2)CC(=O)N1CCCCN1CCN(c2ncccn2)CC1 [BUSPIRONE] | Compound NOT metabolized
OCCOCCN1CCN(C2=Nc3ccccc3Sc3ccccc32)CC1 [QUETIAPINE] | Compound NOT metabolized
O=c1n(CCCN2CCN(c3cccc(Cl)c3)CC2)nc2ccccn12 [TRAZODONE] | Compound NOT metabolized
C[C@@H](c1ncncc1F)[C@](O)(Cn1cncn1)c1ccc(F)cc1F [VORICONAZOLE] | Compound NOT metabolized

Conditions: bacteroides eggerthii, 12 h, 2 µM
Description: The drug is tested on Bacteroides eggerthii strain: DSM20697 for biotransformation. The drug concentrations were measured before and after a 12-h incubation by liquid-chromatography-coupled mass spectrometry (LC–MS)

Structure (SMILES) | Bacterial Biotransformation
O=C1CC2(CCCC2)CC(=O)N1CCCCN1CCN(c2ncccn2)CC1 [BUSPIRONE] | Compound NOT metabolized
OCCOCCN1CCN(C2=Nc3ccccc3Sc3ccccc32)CC1 [QUETIAPINE] | Compound NOT metabolized
O=c1n(CCCN2CCN(c3cccc(Cl)c3)CC2)nc2ccccn12 [TRAZODONE] | Compound NOT metabolized
C[C@@H](c1ncncc1F)[C@](O)(Cn1cncn1)c1ccc(F)cc1F [VORICONAZOLE] | Compound NOT metabolized

Test: The drug is tested on Bifidobacterium longum subsp. Infantis strain: CCUG52486 for biotransformation. The drug concentrations were measured before and after a 12-h incubation by liquid-chromatography-coupled mass spectrometry (LC–MS)
Conditions: 2 µM

Structure (SMILES) | Bacterial Biotransformation
O=C1CC2(CCCC2)CC(=O)N1CCCCN1CCN(c2ncccn2)CC1 [BUSPIRONE] | Compound NOT metabolized
OCCOCCN1CCN(C2=Nc3ccccc3Sc3ccccc32)CC1 [QUETIAPINE] | Compound NOT metabolized
O=c1n(CCCN2CCN(c3cccc(Cl)c3)CC2)nc2ccccn12 [TRAZODONE] | Compound NOT metabolized
C[C@@H](c1ncncc1F)[C@](O)(Cn1cncn1)c1ccc(F)cc1F [VORICONAZOLE] | Compound NOT metabolized

Conditions: bacteroides intestinalis, 12 h, 2 µM
Description: The drug is tested on Bacteroides intestinalis strain: DSM17393 for biotransformation. The drug concentrations were measured before and after a 12-h incubation by liquid-chromatography-coupled mass spectrometry (LC–MS)

Structure (SMILES) | Bacterial Biotransformation
O=C1CC2(CCCC2)CC(=O)N1CCCCN1CCN(c2ncccn2)CC1 [BUSPIRONE] | Compound NOT metabolized
OCCOCCN1CCN(C2=Nc3ccccc3Sc3ccccc32)CC1 [QUETIAPINE] | Compound NOT metabolized
O=c1n(CCCN2CCN(c3cccc(Cl)c3)CC2)nc2ccccn12 [TRAZODONE] | Compound NOT metabolized

Test: The drug is tested on Anaerococcus hydrogenalis strain: DSM7454 for biotransformation. The drug concentrations were measured before and after a 12-h incubation by liquid-chromatography-coupled mass spectrometry (LC–MS)
Conditions: 2 µM

Structure (SMILES) | Bacterial Biotransformation
O=C1CC2(CCCC2)CC(=O)N1CCCCN1CCN(c2ncccn2)CC1 [BUSPIRONE] | Compound NOT metabolized
OCCOCCN1CCN(C2=Nc3ccccc3Sc3ccccc32)CC1 [QUETIAPINE] | Compound NOT metabolized
O=c1n(CCCN2CCN(c3cccc(Cl)c3)CC2)nc2ccccn12 [TRAZODONE] | Compound NOT metabolized
C[C@@H](c1ncncc1F)[C@](O)(Cn1cncn1)c1ccc(F)cc1F [VORICONAZOLE] | Compound NOT metabolized

Conditions: limosilactobacillus reuteri cf48-3a, 12 h, 2 µM
Description: The drug is tested on Lactobacillus reuteri CF48-3A strain: BEI HM-102 for biotransformation. The drug concentrations were measured before and after a 12-h incubation by liquid-chromatography-coupled mass spectrometry (LC–MS)

Structure (SMILES) | Bacterial Biotransformation
O=C1CC2(CCCC2)CC(=O)N1CCCCN1CCN(c2ncccn2)CC1 [BUSPIRONE] | Compound NOT metabolized
OCCOCCN1CCN(C2=Nc3ccccc3Sc3ccccc32)CC1 [QUETIAPINE] | Compound NOT metabolized
O=c1n(CCCN2CCN(c3cccc(Cl)c3)CC2)nc2ccccn12 [TRAZODONE] | Compound NOT metabolized
C[C@@H](c1ncncc1F)[C@](O)(Cn1cncn1)c1ccc(F)cc1F [VORICONAZOLE] | Compound NOT metabolized

Test: The drug is tested on Ruminococcus gnavus strain: ATCC29149 for biotransformation. The drug concentrations were measured before and after a 12-h incubation by liquid-chromatography-coupled mass spectrometry (LC–MS)
Conditions: mediterraneibacter gnavus, 2 µM

Structure (SMILES) | Bacterial Biotransformation
O=C1CC2(CCCC2)CC(=O)N1CCCCN1CCN(c2ncccn2)CC1 [BUSPIRONE] | Compound NOT metabolized
OCCOCCN1CCN(C2=Nc3ccccc3Sc3ccccc32)CC1 [QUETIAPINE] | Compound NOT metabolized
C[C@@H](c1ncncc1F)[C@](O)(Cn1cncn1)c1ccc(F)cc1F [VORICONAZOLE] | Compound NOT metabolized

Conditions: bacteroides stercoris, 12 h, 2 µM
Description: The drug is tested on Bacteroides stercoris strain: ATCC43183 for biotransformation. The drug concentrations were measured before and after a 12-h incubation by liquid-chromatography-coupled mass spectrometry (LC–MS)

Structure (SMILES) | Bacterial Biotransformation
O=C1CC2(CCCC2)CC(=O)N1CCCCN1CCN(c2ncccn2)CC1 [BUSPIRONE] | Compound NOT metabolized
OCCOCCN1CCN(C2=Nc3ccccc3Sc3ccccc32)CC1 [QUETIAPINE] | Compound NOT metabolized
O=c1n(CCCN2CCN(c3cccc(Cl)c3)CC2)nc2ccccn12 [TRAZODONE] | Compound NOT metabolized
